Experimental data taken from PubChem BioAssay (NCI).
“And” between values parts separate entries of the source, which are not always exact repeats. Identical values can stand only once.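 Where inhibition never reached the appropriate level, the endpoint shown equals the highest concentration tested. Otherwise, values were interpolated linearly from a five-concentration, 48-hour dose response in 96-well plates. Here, GI50 denotes the concentration required for 50% inhibition of growth. The concentration for full growth arrest is given as TGI.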

Legend:
Test in all cases: NCI-60 cell line screen, 48 h
SF-539 CNS = test system: SF-539 CNS
DU-145 prostate = test system: DU-145 prostate
UACC-257 melanoma = test system: UACC-257 melanoma
PC-3 prostate = test system: PC-3 prostate
MCF7 breast = test system: MCF7 breast
EKVX NSCLC = test system: EKVX NSCLC
SK-OV-3 ovarian = test system: SK-OV-3 ovarian
NCI-H460 lung = test system: NCI-H460 lung
HCT-116 colon = test system: HCT-116 colon
TK-10 renal = test system: TK-10 renal

`C=C[C@H]1C[C@@H]2C[C@@H]3[C@H]4C/C=C\C(=O)NCCCC5NC(=O)C(=C(O)/C=C/[C@@H]4CC(=O)[C@H]3[C@@H]2[C@H]1C)C5=O` (some centres not stated) gave a GI50 (SF-539 CNS) of 248 nM, a TGI (SF-539 CNS) of 666 nM and a GI50 (DU-145 prostate) of 191 nM. The TGI (DU-145 prostate) was 345 nM, the GI50 (UACC-257 melanoma) was 191 nM and the TGI (UACC-257 melanoma) was 369 nM. For the same compound, the GI50 (PC-3 prostate) was 1360 nM, the TGI (PC-3 prostate) was 2760 nM and the GI50 (MCF7 breast) was 1240 nM. The TGI (MCF7 breast) was 2800 nM, the GI50 (EKVX NSCLC) was 1130 nM and the TGI (EKVX NSCLC) was 2540 nM. It also gave a GI50 (SK-OV-3 ovarian) of 242 nM, a TGI (SK-OV-3 ovarian) of 606 nM and a GI50 (NCI-H460 lung) of 348 nM. For the same compound, the TGI (NCI-H460 lung) was 1200 nM, the GI50 (HCT-116 colon) was 287 nM and the TGI (HCT-116 colon) was 1100 nM. It also gave a GI50 (TK-10 renal) of 192 nM and a TGI (TK-10 renal) of 419 nM.
For `CO[C@H]1C=C[C@@]23c4cc5c(cc4CO[C@]2(O)CN(C)[C@H]3C1)OCO5`, the TGI (SF-539 CNS) was > 100000 nM, the TGI (DU-145 prostate) was > 100000 nM and the TGI (UACC-257 melanoma) was > 100000 nM. The TGI (PC-3 prostate) was > 100000 nM, the TGI (MCF7 breast) was > 100000 nM and the TGI (EKVX NSCLC) was > 100000 nM. The TGI (SK-OV-3 ovarian) was > 100000 nM, the TGI (NCI-H460 lung) was > 100000 nM and the TGI (HCT-116 colon) was > 100000 nM. The TGI (TK-10 renal) was > 100000 nM.
With `C=C(C)C1CCC2(C(=O)O)CCC3(C)C(CCC4C5(C)CCC(OC(=O)NCc6ccccc6)C(C)(C)C5CCC43C)C12` (configuration not stated) the GI50 (SF-539 CNS) was 41900 nM, the TGI (SF-539 CNS) was > 100000 nM and the GI50 (DU-145 prostate) was 4140 nM. The TGI (DU-145 prostate) was 35200 nM, the GI50 (UACC-257 melanoma) was 2300 nM and the TGI (UACC-257 melanoma) was > 100000 nM. The GI50 (PC-3 prostate) was 1200 nM, the TGI (PC-3 prostate) was 95700 nM and the GI50 (MCF7 breast) was 4080 nM. The TGI (MCF7 breast) was > 100000 nM, the GI50 (EKVX NSCLC) was 1710 nM and the TGI (EKVX NSCLC) was > 100000 nM. The GI50 (SK-OV-3 ovarian) was 27800 nM, the TGI (SK-OV-3 ovarian) was > 100000 nM and the GI50 (NCI-H460 lung) was 3140 nM. For the same compound, the TGI (NCI-H460 lung) was 16500 nM, the GI50 (HCT-116 colon) was 2240 nM and the TGI (HCT-116 colon) was 19300 nM. It also gave a GI50 (TK-10 renal) of 3760 nM and a TGI (TK-10 renal) of 58400 nM.
`CC(C)(C)c1cc(NC(=O)Cc2ccc(-c3cnc4cc(-c5cnn(CCN6CCOCC6)c5)ccc4n3)cc2)no1` was tested, and the GI50 (SF-539 CNS) was 87.8 nM and 236 nM and 344 nM, the TGI (SF-539 CNS) was 3680 nM and 3050 nM and > 3000 nM and the GI50 (DU-145 prostate) was 432 nM and 494 nM and 75.7 nM. For the same compound, the TGI (DU-145 prostate) was 50000 nM and > 100000 nM and > 3000 nM, the TGI (UACC-257 melanoma) was 50000 nM and > 100000 nM and > 3000 nM and the GI50 (PC-3 prostate) was 481 nM and 1020 nM and 135 nM. For the same compound, the TGI (PC-3 prostate) was 50000 nM and > 100000 nM and > 3000 nM, the GI50 (MCF7 breast) was 301 nM and 806 nM and 194 nM and the TGI (MCF7 breast) was 50000 nM and > 100000 nM and > 3000 nM. For the same compound, the GI50 (EKVX NSCLC) was 829 nM and 459 nM and 144 nM, the TGI (EKVX NSCLC) was 50000 nM and > 100000 nM and > 3000 nM and the GI50 (SK-OV-3 ovarian) was 369 nM. For the same compound, the TGI (SK-OV-3 ovarian) was 2660 nM, the GI50 (NCI-H460 lung) was 181 nM and 320 nM and 45.6 nM and the TGI (NCI-H460 lung) was 50000 nM and > 100000 nM and > 3000 nM. For the same compound, the GI50 (HCT-116 colon) was 226 nM and 417 nM and 70.5 nM, the TGI (HCT-116 colon) was 50000 nM and > 100000 nM and > 3000 nM and the TGI (TK-10 renal) was 50000 nM and > 100000 nM and > 3000 nM.
With `Cn1cnc([N+](=O)[O-])c1[Se]c1nc(N)nc2c1ncn2C1OC(CO)C(O)C1O` (configuration not stated) the TGI (SF-539 CNS) was > 100000 nM, the TGI (DU-145 prostate) was > 100000 nM and the TGI (UACC-257 melanoma) was > 100000 nM. The TGI (PC-3 prostate) was > 100000 nM, the TGI (MCF7 breast) was > 100000 nM and the TGI (EKVX NSCLC) was > 100000 nM. For the same compound, the TGI (SK-OV-3 ovarian) was > 100000 nM, the TGI (NCI-H460 lung) was > 100000 nM and the TGI (HCT-116 colon) was > 100000 nM. For the same compound, the TGI (TK-10 renal) was > 100000 nM.
Compound `COc1ccccc1Cn1cc2c(c1-c1ccccc1)CCc1cnoc1-2` has a GI50 (SF-539 CNS) of 2570 nM, a GI50 (DU-145 prostate) of 2760 nM and a TGI (DU-145 prostate) of 12100 nM. For the same compound, the GI50 (UACC-257 melanoma) was 20200 nM, the TGI (UACC-257 melanoma) was > 100000 nM and the GI50 (PC-3 prostate) was 3750 nM. The TGI (PC-3 prostate) was > 100000 nM, the GI50 (MCF7 breast) was 2330 nM and the TGI (MCF7 breast) was > 100000 nM. The GI50 (EKVX NSCLC) was 2760 nM, the TGI (EKVX NSCLC) was > 100000 nM and the GI50 (SK-OV-3 ovarian) was 3500 nM. The TGI (SK-OV-3 ovarian) was > 100000 nM, the GI50 (NCI-H460 lung) was 2650 nM and the TGI (NCI-H460 lung) was 18100 nM. The GI50 (HCT-116 colon) was 2800 nM, the TGI (HCT-116 colon) was > 100000 nM and the GI50 (TK-10 renal) was 4320 nM. For the same compound, the TGI (TK-10 renal) was > 100000 nM.
Compound `Cc1ccc(NC(=O)c2sc3nc(C)c(C(O)c4ccccc4)cc3c2N)cc1` (configuration not stated) has a GI50 (SF-539 CNS) of 287 nM, a TGI (SF-539 CNS) of 1300 nM and a GI50 (DU-145 prostate) of 391 nM. For the same compound, the TGI (DU-145 prostate) was 16800 nM, the GI50 (UACC-257 melanoma) was 4090 nM and the TGI (UACC-257 melanoma) was > 100000 nM. The GI50 (PC-3 prostate) was 429 nM, the TGI (PC-3 prostate) was 20700 nM and the GI50 (MCF7 breast) was 368 nM. For the same compound, the TGI (MCF7 breast) was > 57600 nM, the GI50 (EKVX NSCLC) was 733 nM and the TGI (EKVX NSCLC) was > 100000 nM. The GI50 (SK-OV-3 ovarian) was 768 nM, the TGI (SK-OV-3 ovarian) was 30600 nM and the GI50 (NCI-H460 lung) was 359 nM. It also gave a TGI (NCI-H460 lung) of 5320 nM, a GI50 (HCT-116 colon) of 381 nM and a TGI (HCT-116 colon) of 12200 nM. It also gave a GI50 (TK-10 renal) of 2120 nM and a TGI (TK-10 renal) of 36400 nM.
`COC(=O)c1c(C)[nH]c(/C=C2\N=C(c3ccc[nH]3)C=C2OC)c1C` showed a GI50 (SF-539 CNS) of 756 nM, a TGI (SF-539 CNS) of 2290 nM and a GI50 (DU-145 prostate) of 426 nM. The TGI (DU-145 prostate) was > 100000 nM, the GI50 (UACC-257 melanoma) was 339 nM and the TGI (UACC-257 melanoma) was 1520 nM. For the same compound, the GI50 (PC-3 prostate) was 349 nM, the TGI (PC-3 prostate) was > 100000 nM and the GI50 (MCF7 breast) was 413 nM. It also gave a TGI (MCF7 breast) of 3120 nM, a GI50 (EKVX NSCLC) of 1070 nM and a TGI (EKVX NSCLC) of 3280 nM. The GI50 (SK-OV-3 ovarian) was 2690 nM, the TGI (SK-OV-3 ovarian) was > 100000 nM and the GI50 (NCI-H460 lung) was 147 nM. For the same compound, the TGI (NCI-H460 lung) was > 100000 nM, the GI50 (HCT-116 colon) was 37.8 nM and the TGI (HCT-116 colon) was 1200 nM. The GI50 (TK-10 renal) was 141 nM and the TGI (TK-10 renal) was 4030 nM.
